Source: patent US20220274947A1, “NOVEL HETEROARYL-TRIAZOLE COMPOUNDS AS PESTICIDES” (Bayer Aktiengesellschaft, priority 2019, published 2022)

What was measured:
Type in all cases: in vivo
Diabrotica balteata = Diabrotica balteata spray test; details: 168 h, wheat seeds, larvae, after 7 days, read-out: activity (efficacy: 100% means all seedlings have grown up like in the untreated, uninfected control); for pest or weed control at 32 µg/disc, 100 g/ha: application rate 100 g/ha (=32 μg/well); for pest or weed control at 160 µg/disc, 500 g/ha: application rate 500 g/ha (=160 μg/well)
Summary of the method: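 Wheat seedlings, germinated 1 day on agar, were sprayed with compound in acetone/DMF diluted in water containing emulsifier, then infested with 10-20 Diabrotica balteata larvae. After 7 days efficacy in % was scored: 100% means seedlings grew like the untreated, uninfected control; 0% means none grew.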

Rhipicephalus microplus [1] = experiment: Rhipicephalus (Boophilus) microplus injection test (BOOPMI Inj); details: 168 h, injection into adult engorged female ticks, egg deposition after 7 days, read-out: activity (efficacy: 100% means all eggs are infertile); for pest or weed control at 0.004 mg: application rate 4 μg/tick; for pest or weed control at 0.02 mg: application rate 20 μg/tick
Summary of the method: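 Five engorged adult female R. microplus ticks injected into the abdomen with 1 μL of compound diluted in DMSO, then kept in a climate chamber. Fertile egg deposition checked after 7 days; eggs without visible fertility held until hatching at about 42 days. Efficacy: 100% = all eggs infertile, 0% = all fertile.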

[2] = test system: Musca domestica strain WHO—N; experiment: Musca domestica test (MUSCDO surface treatment & contact assay); details: exposure 30 minutes, 24 hours after contact, read-out: efficacy (mortality); for mortality at 20 mg/m2: surface concentration 20 mg/m^2, glazed tile
Summary of the method: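 Compound dissolved in acetone (2 mg/ml) with 2000 ppm rapeseed oil methyl ester and pipetted onto glazed tile; after acetone evaporation, adult flies exposed to dried surface for 30 minutes. Mortality (%) scored 24 hours after contact.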

Spodoptera frugiperda = Spodoptera frugiperda spray test; details: in Zea mays, 168 h, read-out: activity (mortality)
Summary of the method: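 Maize leaf sections were sprayed with compound formulated in acetone/DMF and diluted in water containing 1000 ppm emulsifier. Dried leaves were infested with fall armyworm larvae, and percent mortality was scored after 7 days.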

Rhipicephalus sanguineus = Rhipicephalus sanguineus in-vitro contact test, adult brown dog ticks (RHIPSA Cont); details: 48 h, after 48 hours, read-out: activity (efficacy: 100% means all ticks are dead or moribund); for pest or weed control at 1 µg/cm2, 100 g/ha: application rate 1 μg/cm^2 (=100 g/ha); for pest or weed control at 5 µg/cm2, 500 g/ha: application rate 5 μg/cm^2 (=500 g/ha)
Summary of the method: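 Compound in acetone (9 mg/mL stock, diluted to test concentration) is coated onto inner walls of glass tubes by rotation for 2 h at 30 rpm. Efficacy is read after 48 h: ticks are tapped down and held on a 45-50° C plate for at most 5 min, and immotile or uncoordinated ones that fail to climb away count as dead or moribund.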

Rhipicephalus microplus [3] = experiment: Rhipicephalus (Boophilus) microplus in-vitro contact test, larval cattle tick, strain Parkhurst (BOOPMI Cont); details: application rate 5 μg/cm^2 (=500 g/ha), tick larvae, after 48 hours, read-out: activity (efficacy: 100% means all larvae are dead or moribund)
Summary of the method: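 Acetone solutions dried onto glass tube walls (900 ppm giving 5 μg/cm^2); 20-50 pyrethroid-resistant Parkhurst larvae added per tube and held 48 h at 27° C., 85% relative humidity. Efficacy scored by negative geotaxis as % dead or moribund larvae.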

Nezara viridula = Nezara viridula spray test; details: in Hordeum vulgare, 96 h, barley plants, larvae, after 4 days; for mortality at 100 g/ha: application rate 100 g/ha; for mortality at 500 g/ha: application rate 500 g/ha
Protocol: Nezara viridula—Spray Test Solvent: 78.0 parts by weight of acetone • • 1.5 parts by weight of dimethylformamide Emulsifier: alkylarylpolyglycol ether
To produce a suitable preparation of active compound, 1 part by weight of active compound is mixed with the stated amount of solvent, and the concentrate is diluted with water, containing an emulsifier concentration of 1000 ppm, to the desired concentration. Further test concentrations are prepared by dilution with emulsifier containing water.
Barley plants (Hordeum vulgare) infested with larvae of the southern green stink bug (Nezara viridula) are sprayed with a test solution containing the desired concentration of the active ingredient.
After 4 days mortality in % is determined. 100% means all the stink bugs have been killed; 0% means none of the stink bugs have been killed.

[4] = test system: Aedes aegypti strain MONHEIM; experiment: Aedes aegypti test (AEDSAE surface treatment & contact assay); details: exposure 30 minutes, 24 hours after contact, read-out: efficacy (mortality); for mortality at 4 mg/m2: surface concentration 4 mg/m^2, glazed tile
Summary of the method: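 Compound dissolved in acetone (2 mg/ml) with 2000 ppm rapeseed oil methyl ester, pipetted onto glazed tile and dried. Adult mosquitoes exposed on the surface for 30 min; percent mortality scored 24 h after contact.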

Ctenocephalides felis [5] = experiment: Ctenocephalides felis oral test (CTECFE Oral); details: 48 h, read-out: activity (mortality)
Summary of the method: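 About 20 unfed adult cat fleas fed through parafilm on cattle blood containing compound (DMSO concentrate diluted in blood to the desired concentration). Blood held at 37 °C, fleas at room temperature. Mortality (%) scored after 2 days.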

Ctenocephalides felis [6] = experiment: Ctenocephalides felis in-vitro contact test, adult cat flea (CTECFE Cont); details: application rate 5 μg/cm^2 (=500 g/ha), adult cat fleas, after 48 hours, read-out: activity (efficacy: 100% means all fleas are dead or moribund)
Protocol: Ctenocephalides felis—In-Vitro Contact Tests Adult Cat Flea (CTECFE Cont)
9 mg compound is solved in 1 mL acetone and diluted with acetone to the desired concentration. 250 μL of the test solution is filled in 25 mL glass test tubes and homogeneously distributed on the inner walls by rotation and tilting on a shaking device (2 h at 30 rpm). With a compound concentration of 900 ppm, an inner surface of 44.7 cm^2 and a homogeneous distribution, a dose of 5 μg/cm^2 is achieved.
After the solvent has evaporated, each test tube is filled with 5-10 adult cat fleas (Ctenocephalides felis), closed with a perforated lid and incubated in a lying position at room temperature and relative humidity. After 48 hours efficacy is determined. The fleas are patted on the ground of the tubes and are incubated on a heating plate at 45-50° C. for at most 5 minutes. Immotile or uncoordinated moving fleas, which are not able to escape the heat by climbing upwards, are marked as dead or moribund.
An efficacy of 100% means all fleas are dead or moribund; 0% means no fleas are dead or moribund.

Myzus persicae = Myzus persicae oral test; details: 120 h, read-out: activity (mortality)
Summary of the method: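 Percent mortality was recorded at day 5, where 0% means no aphids killed. Compound prepared from an acetone concentrate diluted in water and combined with IPL41 medium containing sugar was offered to mixed-stage green peach aphids, which sucked it through a parafilm seal.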

C[C@H](NC(=O)c1cc(Cl)cc(C(F)(F)F)c1)c1nc(C(C)(C)C)nn1-c1ccc(C#N)cn1 [I-38]
pest or weed control at 32 µg/disc, 100 g/ha (Diabrotica balteata): 100% | pest or weed control at 0.004 mg (Rhipicephalus microplus [1]): 100% | pest or weed control at 0.02 mg (Rhipicephalus microplus [1]): 100% | mortality at 20 mg/m2 [2]: 80 to 100% | mortality at 100 g/ha (Spodoptera frugiperda): 83% | pest or weed control at 1 µg/cm2, 100 g/ha (Rhipicephalus sanguineus): 100% | pest or weed control at 5 µg/cm2, 500 g/ha (Rhipicephalus sanguineus): 80% | pest or weed control at 5 µg/cm2 (Rhipicephalus microplus [3]): 100% | mortality at 100 g/ha (Nezara viridula): 100%

COc1nc([C@H](C)NC(=O)c2cc(Cl)cc(Cl)c2)n(-c2ccc(C#N)cn2)n1 [I-15]
pest or weed control at 32 µg/disc, 100 g/ha (Diabrotica balteata): 100% | pest or weed control at 160 µg/disc, 500 g/ha (Diabrotica balteata): 100% | pest or weed control at 0.004 mg (Rhipicephalus microplus [1]): 100% | pest or weed control at 0.02 mg (Rhipicephalus microplus [1]): 100% | mortality at 4 mg/m2 [4]: 80 to 100% | mortality at 100 g/ha (Spodoptera frugiperda): 100% | mortality at 500 g/ha (Spodoptera frugiperda): 100% | mortality at 100 ppm (Ctenocephalides felis [5]): 100% | pest or weed control at 5 µg/cm2 (Ctenocephalides felis [6]): 80% | pest or weed control at 5 µg/cm2, 500 g/ha (Rhipicephalus sanguineus): 80% | mortality at 4 ppm (Myzus persicae): 100% | pest or weed control at 5 µg/cm2 (Rhipicephalus microplus [3]): 100%

C[C@H](NC(=O)c1cc(OC(F)F)cc(OC(F)F)c1)c1nc(C2CC2)nn1-c1ccc(C#N)cn1 [I-47]
pest or weed control at 32 µg/disc, 100 g/ha (Diabrotica balteata): 80% | pest or weed control at 0.004 mg (Rhipicephalus microplus [1]): 100% | mortality at 4 mg/m2 [4]: 80 to 100% | mortality at 4 mg/m2 ([2]; surface concentration 4 mg/m^2, glazed tile): 80 to 100% | mortality at 20 mg/m2 [2]: 80 to 100% | mortality at 100 g/ha (Spodoptera frugiperda): 100% | mortality at 100 ppm (Ctenocephalides felis [5]): 90% | pest or weed control at 1 µg/cm2, 100 g/ha (Rhipicephalus sanguineus): 100% | pest or weed control at 5 µg/cm2, 500 g/ha (Rhipicephalus sanguineus): 80% | pest or weed control at 5 µg/cm2 (Rhipicephalus microplus [3]): 100% | mortality at 100 g/ha (Nezara viridula): 100%

C[C@H](NC(=O)c1cc(Cl)cc(C(F)F)c1)c1nc(C2CC2)nn1-c1ccc(C#N)cn1 [I-42]
pest or weed control at 32 µg/disc, 100 g/ha (Diabrotica balteata): 100% | pest or weed control at 0.004 mg (Rhipicephalus microplus [1]): 100% | mortality at 4 mg/m2 [4]: 80 to 100% | mortality at 20 mg/m2 ([4]; surface concentration 20 mg/m^2, glazed tile): 80 to 100% | mortality at 20 mg/m2 [2]: 80 to 100% | mortality at 100 g/ha (Spodoptera frugiperda): 100% | mortality at 100 ppm (Ctenocephalides felis [5]): 100% | pest or weed control at 5 µg/cm2 (Rhipicephalus microplus [3]): 100% | mortality at 100 g/ha (Nezara viridula): 100%

C[C@H](NC(=O)c1cc(C(F)(F)F)cc(C(F)(F)F)c1)c1nc(C2CC2)nn1-c1ccc(C#N)cn1 [I-4]
pest or weed control at 32 µg/disc, 100 g/ha (Diabrotica balteata): 100% | pest or weed control at 160 µg/disc, 500 g/ha (Diabrotica balteata): 100% | pest or weed control at 0.004 mg (Rhipicephalus microplus [1]): 100% | pest or weed control at 0.02 mg (Rhipicephalus microplus [1]): 100% | mortality at 20 mg/m2 [2]: 80 to 100% | mortality at 100 g/ha (Spodoptera frugiperda): 100% | mortality at 500 g/ha (Spodoptera frugiperda): 100% | pest or weed control at 5 µg/cm2 (Rhipicephalus microplus [3]): 100% | mortality at 500 g/ha (Nezara viridula): 90%

Cc1nc([C@H](C)NC(=O)c2cc(Cl)cc(C(F)(F)C(F)(F)F)c2)n(-c2ccc(C#N)cn2)n1 [II-75]
pest or weed control at 32 µg/disc, 100 g/ha (Diabrotica balteata): 100% | pest or weed control at 0.004 mg (Rhipicephalus microplus [1]): 100% | pest or weed control at 0.02 mg (Rhipicephalus microplus [1]): 100% | mortality at 100 g/ha (Spodoptera frugiperda): 100% | mortality at 100 ppm (Ctenocephalides felis [5]): 100% | pest or weed control at 5 µg/cm2 (Ctenocephalides felis [6]): 90% | pest or weed control at 1 µg/cm2, 100 g/ha (Rhipicephalus sanguineus): 100% | pest or weed control at 5 µg/cm2, 500 g/ha (Rhipicephalus sanguineus): 100% | mortality at 4 ppm (Myzus persicae): 100% | pest or weed control at 5 µg/cm2 (Rhipicephalus microplus [3]): 100%

C[C@H](NC(=O)c1cc(Cl)cc(C(F)(F)F)c1)c1nc(C2CC2)nn1-c1ccc(C#N)cn1 [I-6, 3-chloro-N-{(1S)-1-[1-(5-cyanopyridin-2-yl)-3-cyclopropyl-1H-1,2,4-triazol-5-yl]ethyl}-5-(trifluoromethyl)benzamide]
pest or weed control at 32 µg/disc, 100 g/ha (Diabrotica balteata): 100% | pest or weed control at 160 µg/disc, 500 g/ha (Diabrotica balteata): 100% | pest or weed control at 0.004 mg (Rhipicephalus microplus [1]): 100% | pest or weed control at 0.02 mg (Rhipicephalus microplus [1]): 100% | mortality at 20 mg/m2 [2]: 80 to 100% | mortality at 100 g/ha (Spodoptera frugiperda): 100% | mortality at 500 g/ha (Spodoptera frugiperda): 100% | pest or weed control at 5 µg/cm2 (Rhipicephalus microplus [3]): 100% | mortality at 500 g/ha (Nezara viridula): 100%

C[C@H](NC(=O)c1cc(Br)cc(OC(F)(F)F)c1)c1ncnn1-c1cc(C#N)ccn1 [II-107]
pest or weed control at 32 µg/disc, 100 g/ha (Diabrotica balteata): 100% | pest or weed control at 0.004 mg (Rhipicephalus microplus [1]): 100% | mortality at 100 g/ha (Spodoptera frugiperda): 100% | mortality at 100 ppm (Ctenocephalides felis [5]): 100% | pest or weed control at 5 µg/cm2 (Ctenocephalides felis [6]): 100% | pest or weed control at 1 µg/cm2, 100 g/ha (Rhipicephalus sanguineus): 100% | pest or weed control at 5 µg/cm2, 500 g/ha (Rhipicephalus sanguineus): 100% | mortality at 4 ppm (Myzus persicae): 100% | pest or weed control at 5 µg/cm2 (Rhipicephalus microplus [3]): 100%

C[C@H](NC(=O)c1cc(Cl)cc(SC(F)F)c1)c1nc(C2CC2)nn1-c1ccc(C#N)cn1 [I-46]
pest or weed control at 32 µg/disc, 100 g/ha (Diabrotica balteata): 100% | pest or weed control at 0.004 mg (Rhipicephalus microplus [1]): 100% | mortality at 20 mg/m2 [2]: 80 to 100% | mortality at 100 g/ha (Spodoptera frugiperda): 100% | mortality at 100 ppm (Ctenocephalides felis [5]): 100% | pest or weed control at 5 µg/cm2 (Rhipicephalus microplus [3]): 100% | mortality at 100 g/ha (Nezara viridula): 100%
